# Assay results: PMC8001506 (Marine Drugs, 2021)
# Where a SMILES comes first, the peptide text is derived from it. Bridges are numbered along the chain shown (N, C = ends).
# What was measured:
# Assay in all cases: cell-based
# rat α3β2 nAChR = rat α3β2 nAChR (Rattus norvegicus, UniProt P04757+P12390)
# rat α6/α3β2β3 nAChR = rat α6/α3β2β3 nAChR (Rattus norvegicus, UniProt P04757+P12390+P12391+P43143)
# rat α7 nAChR = rat α7 nAChR (Rattus norvegicus, UniProt Q05941); format: cell-based
# rat α4β2 nAChR = rat α4β2 nAChR (Rattus norvegicus, UniProt P09483+P12390); format: cell-based
# rat α4β4 nAChR = rat α4β4 nAChR (Rattus norvegicus, UniProt P09483+P12392); format: cell-based
# rat α3β4 nAChR = rat α3β4 nAChR (Rattus norvegicus, UniProt P04757+P12392); format: cell-based
# rat α2β2 nAChR = rat α2β2 nAChR (Rattus norvegicus, UniProt P12389+P12390); format: cell-based
# rat α2β4 nAChR = rat α2β4 nAChR (Rattus norvegicus, UniProt P12389+P12392); format: cell-based
# human α9α10 nAChR = human α9α10 nAChR (Homo sapiens, UniProt Q9GZZ6+Q9UGM1); format: cell-based
# rat α3β2 nAChR, sequence (P04757 26-499 limits assumed): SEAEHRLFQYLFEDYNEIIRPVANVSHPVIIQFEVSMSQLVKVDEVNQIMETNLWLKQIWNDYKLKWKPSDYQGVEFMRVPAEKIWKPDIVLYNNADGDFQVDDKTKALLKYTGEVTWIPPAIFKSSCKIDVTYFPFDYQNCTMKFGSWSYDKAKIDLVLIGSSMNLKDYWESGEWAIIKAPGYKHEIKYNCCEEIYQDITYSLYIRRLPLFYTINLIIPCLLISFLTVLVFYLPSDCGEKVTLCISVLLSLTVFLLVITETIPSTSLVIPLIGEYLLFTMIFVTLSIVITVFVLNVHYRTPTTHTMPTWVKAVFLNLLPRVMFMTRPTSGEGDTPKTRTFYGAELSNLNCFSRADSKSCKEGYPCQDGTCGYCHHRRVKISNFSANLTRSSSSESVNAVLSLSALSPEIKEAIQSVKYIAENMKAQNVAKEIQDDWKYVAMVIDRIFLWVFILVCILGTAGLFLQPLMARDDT
# rat α3β2 nAChR, sequence (P12390 25-500 limits assumed): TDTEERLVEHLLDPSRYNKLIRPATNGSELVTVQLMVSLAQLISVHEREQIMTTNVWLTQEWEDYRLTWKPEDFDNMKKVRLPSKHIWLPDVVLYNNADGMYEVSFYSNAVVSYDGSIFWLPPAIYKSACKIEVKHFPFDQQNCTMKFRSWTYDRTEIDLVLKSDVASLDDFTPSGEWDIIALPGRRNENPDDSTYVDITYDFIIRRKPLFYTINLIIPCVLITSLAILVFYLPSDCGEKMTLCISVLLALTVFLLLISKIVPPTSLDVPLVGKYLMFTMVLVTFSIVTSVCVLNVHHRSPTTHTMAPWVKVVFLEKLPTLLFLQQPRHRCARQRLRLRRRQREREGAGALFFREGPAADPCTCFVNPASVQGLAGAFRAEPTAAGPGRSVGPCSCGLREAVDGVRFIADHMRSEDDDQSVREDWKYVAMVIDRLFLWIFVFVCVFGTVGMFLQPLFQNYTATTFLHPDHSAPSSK
# rat α3β4 nAChR, sequence (P04757 26-499 limits assumed): as the sequence (P04757 26-499 limits assumed) above
# rat α3β4 nAChR, sequence (P12392 21-495 limits assumed): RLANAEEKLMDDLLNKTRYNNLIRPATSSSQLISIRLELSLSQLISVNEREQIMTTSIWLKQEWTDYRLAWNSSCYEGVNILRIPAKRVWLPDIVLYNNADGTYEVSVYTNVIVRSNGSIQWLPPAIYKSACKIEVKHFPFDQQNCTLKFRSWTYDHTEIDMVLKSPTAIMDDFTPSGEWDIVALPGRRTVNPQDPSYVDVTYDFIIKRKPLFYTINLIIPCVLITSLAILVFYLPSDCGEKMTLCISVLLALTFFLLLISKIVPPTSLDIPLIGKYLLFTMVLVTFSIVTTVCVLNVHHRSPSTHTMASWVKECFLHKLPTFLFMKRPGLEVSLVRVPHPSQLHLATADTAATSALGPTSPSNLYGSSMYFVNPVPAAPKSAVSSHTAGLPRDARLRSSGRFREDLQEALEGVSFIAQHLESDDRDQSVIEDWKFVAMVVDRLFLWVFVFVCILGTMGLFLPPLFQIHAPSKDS
# rat α6/α3β2β3 nAChR, sequence (P04757 whole entry, looked up): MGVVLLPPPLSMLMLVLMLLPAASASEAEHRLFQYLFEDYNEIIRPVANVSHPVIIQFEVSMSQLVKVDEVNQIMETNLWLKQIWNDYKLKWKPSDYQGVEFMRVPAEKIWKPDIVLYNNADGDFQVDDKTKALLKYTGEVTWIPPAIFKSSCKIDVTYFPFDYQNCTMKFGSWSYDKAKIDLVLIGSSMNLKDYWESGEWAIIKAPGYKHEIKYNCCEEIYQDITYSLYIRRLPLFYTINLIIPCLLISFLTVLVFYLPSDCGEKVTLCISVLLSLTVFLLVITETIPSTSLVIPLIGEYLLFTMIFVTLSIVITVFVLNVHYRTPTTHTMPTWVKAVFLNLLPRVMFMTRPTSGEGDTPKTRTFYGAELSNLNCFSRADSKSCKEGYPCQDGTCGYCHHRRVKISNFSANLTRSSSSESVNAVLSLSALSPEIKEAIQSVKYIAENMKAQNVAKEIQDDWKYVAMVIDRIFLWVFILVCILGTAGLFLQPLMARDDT
# rat α6/α3β2β3 nAChR, sequence (P12390 whole entry, looked up): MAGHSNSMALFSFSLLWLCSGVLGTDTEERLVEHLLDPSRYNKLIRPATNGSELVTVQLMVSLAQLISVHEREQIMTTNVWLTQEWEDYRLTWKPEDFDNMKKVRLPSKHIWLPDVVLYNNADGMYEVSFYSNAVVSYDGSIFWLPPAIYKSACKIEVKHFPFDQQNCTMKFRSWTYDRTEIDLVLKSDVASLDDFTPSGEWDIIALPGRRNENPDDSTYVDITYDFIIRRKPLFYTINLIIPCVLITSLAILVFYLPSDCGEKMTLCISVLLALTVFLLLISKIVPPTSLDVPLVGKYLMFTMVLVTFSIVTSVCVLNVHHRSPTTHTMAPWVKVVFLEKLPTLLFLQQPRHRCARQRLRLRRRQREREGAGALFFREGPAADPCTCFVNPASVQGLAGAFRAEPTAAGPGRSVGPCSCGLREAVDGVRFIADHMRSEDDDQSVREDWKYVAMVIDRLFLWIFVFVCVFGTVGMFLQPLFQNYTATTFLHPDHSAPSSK
# rat α6/α3β2β3 nAChR, sequence (P12391 whole entry, looked up): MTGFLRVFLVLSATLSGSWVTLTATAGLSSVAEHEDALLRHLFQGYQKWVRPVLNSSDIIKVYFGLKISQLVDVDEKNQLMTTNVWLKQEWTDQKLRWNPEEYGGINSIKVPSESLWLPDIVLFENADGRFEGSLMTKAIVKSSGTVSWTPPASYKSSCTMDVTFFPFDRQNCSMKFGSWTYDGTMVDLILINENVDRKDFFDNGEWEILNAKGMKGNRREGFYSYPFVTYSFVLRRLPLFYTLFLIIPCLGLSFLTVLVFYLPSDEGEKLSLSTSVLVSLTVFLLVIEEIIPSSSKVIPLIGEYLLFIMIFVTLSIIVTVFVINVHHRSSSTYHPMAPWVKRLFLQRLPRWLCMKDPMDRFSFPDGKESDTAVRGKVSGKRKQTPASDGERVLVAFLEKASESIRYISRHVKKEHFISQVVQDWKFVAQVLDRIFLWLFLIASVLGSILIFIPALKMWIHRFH
# rat α6/α3β2β3 nAChR, sequence (P43143 whole entry, looked up): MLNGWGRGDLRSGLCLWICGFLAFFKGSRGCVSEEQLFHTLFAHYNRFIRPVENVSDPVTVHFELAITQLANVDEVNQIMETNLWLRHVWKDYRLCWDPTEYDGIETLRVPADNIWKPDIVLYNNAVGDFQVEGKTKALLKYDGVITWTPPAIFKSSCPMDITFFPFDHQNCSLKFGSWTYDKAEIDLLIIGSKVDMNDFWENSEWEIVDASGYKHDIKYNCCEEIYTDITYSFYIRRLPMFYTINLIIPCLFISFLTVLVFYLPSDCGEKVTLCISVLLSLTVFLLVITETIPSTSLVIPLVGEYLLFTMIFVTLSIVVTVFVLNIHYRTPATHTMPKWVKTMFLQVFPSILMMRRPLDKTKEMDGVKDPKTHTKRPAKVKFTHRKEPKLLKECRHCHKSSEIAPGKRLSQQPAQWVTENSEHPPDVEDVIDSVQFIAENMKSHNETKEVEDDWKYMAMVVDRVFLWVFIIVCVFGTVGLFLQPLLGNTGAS
# rat α7 nAChR, sequence (Q05941 23-502 limits assumed): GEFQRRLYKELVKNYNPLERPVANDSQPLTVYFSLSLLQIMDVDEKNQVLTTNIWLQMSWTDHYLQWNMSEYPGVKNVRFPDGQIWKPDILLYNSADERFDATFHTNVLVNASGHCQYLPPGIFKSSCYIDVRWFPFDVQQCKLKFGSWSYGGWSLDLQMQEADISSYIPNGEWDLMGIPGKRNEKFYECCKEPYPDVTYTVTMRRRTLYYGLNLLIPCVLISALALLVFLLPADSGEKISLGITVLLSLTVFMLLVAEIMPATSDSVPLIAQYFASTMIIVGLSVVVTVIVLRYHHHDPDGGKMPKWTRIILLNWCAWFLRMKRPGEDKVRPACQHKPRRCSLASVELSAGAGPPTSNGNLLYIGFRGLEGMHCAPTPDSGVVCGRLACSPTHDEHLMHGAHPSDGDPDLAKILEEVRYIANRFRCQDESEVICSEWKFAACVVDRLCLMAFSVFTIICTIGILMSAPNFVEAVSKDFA
# rat α2β4 nAChR, sequence (P12389 28-511 limits assumed): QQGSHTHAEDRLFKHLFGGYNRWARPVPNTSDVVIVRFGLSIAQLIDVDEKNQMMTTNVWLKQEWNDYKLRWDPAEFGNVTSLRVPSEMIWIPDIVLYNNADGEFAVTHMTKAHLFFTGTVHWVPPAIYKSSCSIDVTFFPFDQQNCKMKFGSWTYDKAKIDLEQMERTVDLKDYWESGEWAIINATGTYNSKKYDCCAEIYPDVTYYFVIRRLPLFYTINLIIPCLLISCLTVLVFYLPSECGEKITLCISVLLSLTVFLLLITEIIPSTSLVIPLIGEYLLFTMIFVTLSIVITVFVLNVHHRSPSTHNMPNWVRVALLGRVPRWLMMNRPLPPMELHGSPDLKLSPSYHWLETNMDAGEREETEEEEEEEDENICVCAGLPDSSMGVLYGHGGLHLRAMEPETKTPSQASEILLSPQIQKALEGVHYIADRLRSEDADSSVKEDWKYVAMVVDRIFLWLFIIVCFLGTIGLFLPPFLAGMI
# rat α2β4 nAChR, sequence (P12392 21-495 limits assumed): as the sequence (P12392 21-495 limits assumed) above
# rat α2β2 nAChR, sequence (P12389 28-511 limits assumed): as the sequence (P12389 28-511 limits assumed) above
# rat α2β2 nAChR, sequence (P12390 25-500 limits assumed): as the sequence (P12390 25-500 limits assumed) above
smiles,measurement,setting,value
"CC(C)C[C@@H]1NC(=O)[C@H](CC(=O)O)NC(=O)[C@H](CO)NC(=O)[C@H](Cc2c[nH]cn2)NC(=O)[C@H](CCC(N)=O)NC(=O)[C@H](C(C)C)NC(=O)[C@H](CCC(N)=O)NC(=O)[C@@H]2CSSC[C@H](NC(=O)[C@@H](NC(=O)[C@H](CC(=O)O)NC(=O)[C@H](C)NC(=O)CNC(=O)[C@H](CO)NC(=O)[C@H](C)N)[C@@H](C)O)C(=O)N[C@@H](CSSC[C@@H](C(=O)O)NC1=O)C(=O)N[C@@H](CO)C(=O)N[C@@H](CC(N)=O)C(=O)N1CCC[C@H]1C(=O)N[C@@H](C)C(=O)N2 [CIC] (H-ASGADTCCSNPACQVQHSDLC-OH; disulfide 7-13, 8-21)",IC50,rat α3β2 nAChR,3.51 µM
same,IC50,rat α6/α3β2β3 nAChR,1.03 µM
same,IC50,rat α7 nAChR,> 10 µM
same,IC50,rat α4β2 nAChR,> 10 µM
same,IC50,rat α4β4 nAChR,> 10 µM
same,IC50,rat α3β4 nAChR,> 10 µM
same,IC50,rat α2β2 nAChR,> 10 µM
same,IC50,rat α2β4 nAChR,> 10 µM
same,IC50,human α9α10 nAChR,> 10 µM
